The values that follow come from article PMC5937873, “Improving the biopharmaceutical attributes of mangiferin using vitamin E-TPGS co-loaded self-assembled phosholipidic nano-mixed micellar systems” (Drug Delivery and Translational Research, 2018).

Series [1] in a line: Equilibrium solubility studies in emulgents and cosolvents. The format is physicochemical. The settings on record: 37 ± 1 °C. As to the method:
Solubility studies for Mgf were carried out for 72 h at 37 ± 1 °C in a water bath by adding an excess amount of drug in various water-soluble emulgents, viz. Acconon CC-6, Cremophor RH40, Cremophor EL, Vitamin E TPGS, Labrafil […], Labrasol, Tween 80 and Tween 40. Cosolvents employed included Transcutol HP, PEG 200, and propylene glycol. Aliquots of the filtrate were suitably diluted with methanol and analyzed using the HPTLC method previously reported by the authors at a λmax of 262 nm.

Series [2] in a line: In vivo pharmacokinetic studies. The settings on record: rat, oral, Mgf equivalent to 30 mg/kg. As to the method: In vivo pharmacokinetic studies were conducted by sparse sampling designed experiment. The formulations were administered through oral gavage on two groups of rats (n = 60). Within each group, five subgroups were designated (5 × 6 = 30 animals were employed in one group) and from one animal maximum two blood samples were withdrawn during the entire study alternating between left and right eyes. Group I was administered plain Mgf solution and Group II was given Mgf-SPNMS containing Mgf equivalent to 30mg/Kg. The animals were anesthetized employing isoflurane, and the blood (200 μL) was withdrawn from the retro-orbital plexus of rats at 0.5, 1, 2, 3, 6, 12, 18, 24, and 36 h, in heparin-coated micro-centrifuge tubes.
Further, plasma was harvested by centrifugation at 10,000 rpm (559 g) for 5 min and analyzed for Mgf using the previously reported and validated HPTLC method. The data were analyzed by non-compartmental and compartmental pharmacokinetic modeling approaches using the WinNonlin software, version 5.0 ([…]). Statistical tests like one-way/two-way ANOVA followed by post hoc multiple comparison tests, and Student’s independent t test has been applied wherever applicable.

In series [3] the test system is vital organs. The series can be described thus: Histopathology of vital organs (in vivo toxicity). The settings on record: SD female rats, 30 mg/kg Mgf oral gavage, three times per week for 4 weeks.
Series [4] is described as follows: Biopharmaceutics classification (BCS). The settings on record: by virtue of low aqueous solubility and lipophilicity.
In series [5] the test system is whole blood. As to the kind of experiment: Hematological studies (whole blood count, RBC morphology). The settings on record: SD female rats, 30 mg/kg Mgf oral gavage, three times per week for 4 weeks.
The conditions of series [6]: excised rat small intestine, 2 h.
For series [7], the target named is T1, BCRP transporters (Homo sapiens, UniProt Q9UNQ0).
T1 construct: endogenous in cells; host or cells: MCF-7 and MDA-MB-231 cells
T1 sequence (Q9UNQ0 1-655): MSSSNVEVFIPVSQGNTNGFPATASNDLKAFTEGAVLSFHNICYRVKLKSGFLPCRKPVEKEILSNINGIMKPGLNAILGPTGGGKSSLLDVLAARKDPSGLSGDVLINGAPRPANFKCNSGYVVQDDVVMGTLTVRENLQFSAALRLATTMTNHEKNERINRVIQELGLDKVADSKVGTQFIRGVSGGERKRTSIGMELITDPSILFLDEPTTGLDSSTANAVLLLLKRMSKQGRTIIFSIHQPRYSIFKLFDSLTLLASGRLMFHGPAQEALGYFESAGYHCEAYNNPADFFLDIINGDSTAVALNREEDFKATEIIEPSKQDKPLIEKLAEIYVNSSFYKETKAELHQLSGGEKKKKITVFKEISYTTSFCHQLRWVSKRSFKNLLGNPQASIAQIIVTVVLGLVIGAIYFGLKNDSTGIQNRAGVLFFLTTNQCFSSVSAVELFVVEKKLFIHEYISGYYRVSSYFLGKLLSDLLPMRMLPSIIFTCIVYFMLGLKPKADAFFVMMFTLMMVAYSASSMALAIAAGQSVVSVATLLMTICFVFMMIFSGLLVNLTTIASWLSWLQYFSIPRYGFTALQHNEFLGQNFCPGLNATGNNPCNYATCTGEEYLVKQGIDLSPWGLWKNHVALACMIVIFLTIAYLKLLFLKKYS
As to the kind of experiment: P-gp efflux assay with DiOC2 dye (multi-drug resistance dye efflux kit). The settings on record: MCF-7 and MDA-MB-231 cells, 37 °C. The class given is cell-based. The protocol: (§1) Overexpression of P-gp in MCF-7 and MDA-MB-231 cells is well-documented in literature. […] For evaluating the P-gp efflux, the multi-drug resistance dye efflux assay kit (Chemicon International, USA) was employed in which the MCF-7 and MDA-MB-231 cells (2.5 × 10^5) were treated with Rh-123 and DiOC2 dyes, with or without vinblastine. To assess the inhibitory activity of SPNMS on MDR1 transporters, these were incubated with Rh-123 alone, Rh-123 with SPNMS, and Rh-123 with vinblastine at 37 °C, along with Rh-123 at 4 °C. Likewise, to estimate the potential of the developed SPNMS formulation for blocking the activity of BCRP transporters, DiOC2 dye was employed. On similar heels, MCF-7 and MDA-MB-231 cells (2.5 × 10^5) were incubated with DiOC2 alone, DiOC2 with SPNMS, and DiOC2 with vinblastine at 37 °C, along with DiOC2 at 4 °C. The fluorescence intensity was measured in a TECAN fluorescence microplate reader at an excitation wavelength of 485 nm and an emission wavelength of 530 nm.

Series [8] deals with T2, MDR1 transporters (Homo sapiens, UniProt P08183).
T2 construct: Overexpression of P-gp in MCF-7 and MDA-MB-231 cells is well-documented in literature; endogenous in cells; host or cells: MCF-7 and MDA-MB-231 cells
T2 sequence (P08183 whole entry): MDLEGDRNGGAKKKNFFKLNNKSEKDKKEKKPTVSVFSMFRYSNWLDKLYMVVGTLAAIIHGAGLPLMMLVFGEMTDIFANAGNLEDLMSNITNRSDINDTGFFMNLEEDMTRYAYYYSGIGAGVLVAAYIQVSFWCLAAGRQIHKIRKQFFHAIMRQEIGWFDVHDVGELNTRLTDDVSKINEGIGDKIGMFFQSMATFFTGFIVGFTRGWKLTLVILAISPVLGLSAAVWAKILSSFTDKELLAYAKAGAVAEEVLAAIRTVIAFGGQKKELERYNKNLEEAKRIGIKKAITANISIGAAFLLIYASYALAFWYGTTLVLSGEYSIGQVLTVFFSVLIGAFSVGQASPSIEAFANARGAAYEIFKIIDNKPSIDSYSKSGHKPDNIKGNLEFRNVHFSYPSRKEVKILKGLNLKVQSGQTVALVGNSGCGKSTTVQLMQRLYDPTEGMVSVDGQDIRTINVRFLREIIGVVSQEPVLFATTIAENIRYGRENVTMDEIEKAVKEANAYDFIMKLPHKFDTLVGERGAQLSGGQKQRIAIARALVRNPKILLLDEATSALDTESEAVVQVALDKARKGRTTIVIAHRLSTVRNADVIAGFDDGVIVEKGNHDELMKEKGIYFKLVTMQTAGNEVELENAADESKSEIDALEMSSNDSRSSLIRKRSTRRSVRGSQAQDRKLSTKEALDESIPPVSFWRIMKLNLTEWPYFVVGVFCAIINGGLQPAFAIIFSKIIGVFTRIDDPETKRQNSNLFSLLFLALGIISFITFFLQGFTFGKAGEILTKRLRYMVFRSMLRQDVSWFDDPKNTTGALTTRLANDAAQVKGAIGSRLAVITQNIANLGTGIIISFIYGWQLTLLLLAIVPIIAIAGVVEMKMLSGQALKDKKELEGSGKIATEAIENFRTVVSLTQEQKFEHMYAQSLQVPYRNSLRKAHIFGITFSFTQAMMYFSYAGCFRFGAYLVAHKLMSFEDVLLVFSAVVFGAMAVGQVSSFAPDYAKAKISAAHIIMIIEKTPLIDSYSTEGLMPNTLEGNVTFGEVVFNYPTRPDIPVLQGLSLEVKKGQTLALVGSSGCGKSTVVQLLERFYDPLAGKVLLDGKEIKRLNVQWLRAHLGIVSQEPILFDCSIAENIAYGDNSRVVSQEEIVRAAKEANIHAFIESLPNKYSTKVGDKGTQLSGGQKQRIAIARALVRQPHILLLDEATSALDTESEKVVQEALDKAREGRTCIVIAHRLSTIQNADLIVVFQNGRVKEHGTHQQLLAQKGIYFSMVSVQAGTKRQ
The series can be described thus: P-gp efflux assay with Rh-123 dye (multi-drug resistance dye efflux kit). The class given is cell-based. The settings on record: MCF-7 and MDA-MB-231 cells, 37 °C. As to the method: as §1

≈ marks a conversion by molar mass, not a printed value. Where two headings read alike, the source gives them in different places.

A word on the Cmax: it is the peak of the concentration-time curve. In general, MRT refers to the average time that molecules of a dose stay in the body. For orientation: Tmax means the time at which the peak concentration occurs. In the case of `O=c1c2cc(O)c(O)cc2oc2cc(O)c([C@@H]3O[C@H](CO)[C@@H](O)[C@H](O)[C@H]3O)c(O)c12` [Mgf, mangiferin], in series [1] (PEG 200 (cosolvent), highest among cosolvents, read-out: equilibrium solubility in PEG 200), the solubility thermodynamic at 72 h is 10.2 mg/mL (≈ 24.2 mM). Also, the solubility thermodynamic at 72 h in series [1] (vitamin E TPGS (water-soluble emulgent), maximum among surfactants, read-out: equilibrium solubility in vitamin E TPGS) stood at 17.6 mg/mL (≈ 41.8 mM). Besides, in series [2] (plasma), the Cmax is 297 ± 56.4 ng/mL, the MRT came to 8.16 ± 1.73 h and the Tmax was 3.08 ± 0.18 h. In series [2], the Cl amounted to 2543.44 ± 453.42 mL/h and the Ka was determined as 0.32 ± 0.09 h⁻¹. In addition, the “histopathological change(s) in vital organs” value in series [3] was “no histopathological change(s)”. In addition, the BCS class result in series [4] is recorded as “BCS class IV”. In series [5], the HCT is given as 43.9%, the HGB amounted to 14.54 g/dL, the PLT count result is “AG* 589 × 10^3/μL” and the RBC count amounted to 8.21e+06 µL⁻¹. The same compound returned a WBC count in series [5] of 16400 µL⁻¹.

As for `COC(=O)c1ccccc1-c1c2ccc(=N)cc-2oc2cc(N)ccc12` [Rh-123, Rhodamine 123], in series [6], the “intestinal permeation (CLSM)” value is listed as “does not permeate through the intestine”.

With `CC[C@]1(O)C[C@@H]2CN(CCc3c([nH]c4ccccc34)[C@@](C(=O)OC)(c3cc4c(cc3OC)N(C)[C@H]3[C@@](O)(C(=O)OC)[C@H](OC(C)=O)[C@]5(CC)C=CCN6CC[C@]43[C@@H]65)C2)C1` [vinblastine], the “inhibition of DiOC2 efflux (fluorescence intensity)” value in series [7] is reported as “higher fluorescence intensity without any efflux”. Also, the “inhibition of Rh-123 efflux (fluorescence intensity)” value in series [8] is listed as “higher fluorescence intensity without any efflux”.
